In article PMC10545567, “A complex bearing TSPO PIGA ligand coordinated to the [Au(PEt3)]^+ pharmacophore is highly cytotoxic against ovarian cancer cells” (Biometals, 2023):

Target: T1, Thioredoxin reductase (TrxR) (Rattus norvegicus, UniProt O89049)
T1 construct: gene Txnrd1
Test: DTNB reduction assay with isolated rat liver TrxR, […] nm, […] min preincubation with NADPH

T1 sequence (O89049 whole entry): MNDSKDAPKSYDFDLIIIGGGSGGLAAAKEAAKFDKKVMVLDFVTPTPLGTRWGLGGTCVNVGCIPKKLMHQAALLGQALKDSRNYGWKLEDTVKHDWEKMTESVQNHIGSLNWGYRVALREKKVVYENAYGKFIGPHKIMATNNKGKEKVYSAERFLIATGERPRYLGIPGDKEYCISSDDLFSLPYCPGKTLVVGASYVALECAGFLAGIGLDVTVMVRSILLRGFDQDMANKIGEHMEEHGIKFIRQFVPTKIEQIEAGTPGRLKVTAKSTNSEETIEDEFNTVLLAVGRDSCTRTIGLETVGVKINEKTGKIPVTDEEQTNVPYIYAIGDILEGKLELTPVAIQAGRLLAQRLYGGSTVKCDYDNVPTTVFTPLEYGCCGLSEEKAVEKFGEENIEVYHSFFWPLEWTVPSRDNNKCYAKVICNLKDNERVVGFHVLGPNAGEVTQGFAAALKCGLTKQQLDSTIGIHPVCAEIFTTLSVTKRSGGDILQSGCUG

Structure (SMILES)	IC50 [nM]
CCCCCCN(CCCCCC)C(=O)C(=O)c1c(-c2ccccc2)[n]([Au-][P+](CC)(CC)CC)c2ccccc12 [compound 1, [N,N-di-n-hexyl-2-(2-phenyl-1-indol-kN-3-yl)glyoxylamido]-AuPEt3]	59.2
CC[P+](CC)(CC)[Au-][Cl] [compound 5, Et3PAuCl]	51.1
